Our source for the viability values is publication PMC12040169 (PLOS Biology, 2025).

A short description of this series: in vitro. As to conditions: human, hela cells, % viability.

As usually defined, the viability is a read-out of living cells in per cent, often relative to untreated cells. For `Cc1ccc(CCNC(=O)c2snnc2C)cc1C` [CBK282051], the viability at 28.5 h, 10 µM is 89.6%. Regarding `Cc1nc2cc(Cl)ccc2n1CCO` [CBK110738], the viability at 28.5 h, 10 µM is 100%. Under `CN(Cc1ccc(N2CCCCC2)cc1)S(=O)(=O)c1ccsc1C(=O)O` [CBK295333] stands 85.5%; under `Cc1ccc(OCc2cc(C)on2)c(Br)c1` [CBK002837], 109%.

For `O=C(O)CCc1ccc(-c2ccc(F)cc2)n1CCc1ccccc1` [CBK265936], the viability at 28.5 h, 10 µM was found to be 108%. Under `CC(=O)Nc1ccc(CNc2ccc(C#N)cn2)cc1` [CBK297790] stands 97.7%; under `COc1ccc(C(NC(=O)C2CCN(Cc3c[nH]c4ccccc34)CC2)c2ccccn2)cc1` (stereo not shown) [CBK148033], 121%.

As for `COc1cc(CN2CCN(c3cc(C)ccc3C)CC2)cc([N+](=O)[O-])c1O` [CBK261868], the viability at 28.5 h, 10 µM worked out at 95.5%. Turning to `Oc1ccc(-n2ncc(-c3ccc(F)cc3)n2)cc1` [CBK112904], the viability at 28.5 h, 10 µM stood at 79.7%. `COCC1(C)NC(=O)N(Cc2nn(-c3ccccc3)c3c2CCC3)C1=O` (stereo not shown) [CBK306483]: the viability at 28.5 h, 10 µM amounted to 88.8%. Regarding `COc1cccc(C(=O)Nc2nc(-c3ccccc3)cs2)c1OC` [CBK287697], the viability at 28.5 h, 10 µM was 104%. As to `CCOc1ccc(-c2n[nH]c(=S)n2CCC(=O)N2CCCN(Cc3ccc(C#N)cc3)CC2)cc1` [CBK297893], the viability at 28.5 h, 10 µM is 95.8%. `Cc1cc(C(=O)Nc2nncs2)c2ccc(F)cc2n1` [CBK297738]: the viability at 28.5 h, 10 µM amounted to 85.3%. Under `C/C=C/c1ccc(OCCCSc2nc(C)cc(O)n2)c(OC)c1` [CBK267413] stands 93.5%.

Take `O=C(C(c1ccccc1)c1ccccc1)N1CCC2(CCNC2)C1` (stereo not shown) [CBK156729C]: the viability at 28.5 h, 10 µM was found to be 92.3%.

In the case of `O=C(NCC(c1ccccc1)N1CCOCC1)c1cnc(-c2ccc(F)cc2)c(-c2ccco2)c1` (stereo not shown) [CBK037531], the viability at 28.5 h, 10 µM was found to be 95.7%.

In the case of `CC(C)CCC(=O)Nc1ccc(N2CCN(C(=O)c3ccccc3C(F)(F)F)CC2)nn1` [CBK138629], the viability at 28.5 h, 10 µM was found to be 100%.

Turning to `COc1ccc(OCCN2C(=O)CNC2=S)cc1` [CBK007177], the viability at 28.5 h, 10 µM is 77%. Regarding `Cc1cccc(CN(CCN)C(=O)NC2C[C@H]2c2ccccc2)n1` (stereo partly shown) [CBK046220C], the viability at 28.5 h, 10 µM amounted to 120%.

Turning to `O=C(Cc1ccccc1F)N1CCC(n2cnc3cccnc32)CC1` [CBK283635], the viability at 28.5 h, 10 µM was 87.7%. For `O=C(Cn1ncc2cccn2c1=O)Nc1cccc(F)c1` [CBK283702], the viability at 28.5 h, 10 µM turned out to be 89.8%. Consider `COc1ccc([N+](=O)[O-])cc1COc1ccc2c(C(F)(F)F)cc(=O)oc2c1` [CBK265173], for which the viability at 28.5 h, 10 µM amounted to 96.4%. Regarding `O=C(O)c1cccc(CSc2nnc(Cc3ccccc3)o2)c1` [CBK268060], the viability at 28.5 h, 10 µM is 92%.

Consider `O=C(Cc1cn2ccsc2n1)NCCCN1CCCc2ccccc21` [CBK306611], for which the viability at 28.5 h, 10 µM was 101%.

Take `COc1ccc([C@@]23CC[C@H](NC(=O)CSc4nccn4C)C[C@@H]2N(C)CC3)cc1OC` [CBK036444]: the viability at 28.5 h, 10 µM was determined as 84.7%. With `Cn1c(=O)c2[nH]c(-c3ccncc3)nc2n(C)c1=O` [CBK287902], the viability at 28.5 h, 10 µM was found to be 92.5%. `O=c1ncccn1[C@@H]1O[C@H](CO)[C@H](O)C1O` (stereo partly shown) [CBK201195]: the viability at 28.5 h, 10 µM is 94%. `Cc1cc2ccccc2n2c(=O)n(CC(=O)N(C(C)C)C(C)C)nc12` [CBK283885]: the viability at 28.5 h, 10 µM is 87.1%. For `O=C(c1ccc(F)cc1)N1CCC[C@@H]1Cn1c(=O)oc2ccccc21` [CBK284529], the viability at 28.5 h, 10 µM came to 89.4%. Under `CN(C)c1cccc(-c2cnc3[nH]c(=O)n(-c4ccc5[nH]ccc5c4)c3n2)c1` [CBK064682] stands 103%. In the case of `CCNC(=O)Nc1ccc2c(-c3ccccc3)ccnc2n1` [CBK070668], the viability at 28.5 h, 10 µM is 95.6%.

In the case of `Cc1ccc(SCc2ccc(C(=O)NCc3cccnc3)cc2)cc1` [CBK268063], the viability at 28.5 h, 10 µM stood at 96.9%. Consider `COc1ccc2c(c1OC)C(=O)N(c1cccc([N+](=O)[O-])c1)C2` [CBK115318], for which the viability at 28.5 h, 10 µM is 99.5%. `CC1CN(S(=O)(=O)N2CCOCC2)CCN1S(=O)(=O)N1CCOCC1` (stereo not shown) [CBK269011]: the viability at 28.5 h, 10 µM amounted to 101%. Under `NC(=O)CC1Nc2cccc3cccc(c23)NC1=O` (stereo not shown) [CBK267560] stands 75%. Take `Nc1ncnc(Nc2cc(C(F)(F)F)cc(C(F)(F)F)c2)n1` [CBK006617]: the viability at 28.5 h, 10 µM was 86.8%. As to `CC(C)(C)OC(=O)N1CCN(c2cc(Cl)nc(N)n2)CC1` [CBK003505], the viability at 28.5 h, 10 µM was 91.8%.

As to `COc1cc(/C=N/NC(=O)c2n[nH]c3c2CCC3)ccc1O` [CBK262881], the viability at 28.5 h, 10 µM turned out to be 109%. Regarding `CCn1ncc(Cn2cc(NC(=O)C3CCCCC3C(=O)O)cn2)c1C` (stereo not shown) [CBK286859], the viability at 28.5 h, 10 µM is 98.9%. Take `COCCN1CCCC(NC(C)c2ccc(OC)c(F)c2)C1` (stereo not shown) [CBK305099]: the viability at 28.5 h, 10 µM came out at 80.9%. Consider `CN(Cc1ccccc1)c1nc(C(F)(F)F)cc(=O)[nH]1` [CBK000319], for which the viability at 28.5 h, 10 µM was 92%. The figure for `CN1CCN(c2ccc(S(=O)(=O)Nc3cc(C(=O)O)cc(C(=O)O)c3)cc2[N+](=O)[O-])CC1` [CBK263862] is 96.8%. Take `CC(C)Nc1cncc(OCCN2CCOCC2)n1` [CBK115599]: the viability at 28.5 h, 10 µM was 109%. For the molecule `N#CCCN(C(=O)NCc1ccc2c(c1)OCO2)C1CCCCC1` [CBK156351], the viability at 28.5 h, 10 µM was 98.7%. Consider `Cc1ccc2c(c1)C(=O)CC1(CCC3C(C(=O)NC4CCCC4)C31)O2` (stereo not shown) [CBK282716], for which the viability at 28.5 h, 10 µM is 83.4%. Consider `COc1nccnc1-c1ccc(SC)cc1` [CBK106795], for which the viability at 28.5 h, 10 µM turned out to be 95%.

As to `COc1cc(CNc2cc(-c3cccc4oc5ccccc5c34)ncn2)cc(OC)c1OC` [CBK091177], the viability at 28.5 h, 10 µM came out at 90.3%. Under `Cc1cc(C)nc(-n2ncc(C#N)c2NC(=O)c2ccccc2)n1` [CBK288135] stands 111%. `CC1CCCCN1C(=O)CCn1c(-c2ccncc2)cc2cccnc21` (stereo not shown) [CBK282689]: the viability at 28.5 h, 10 µM is 105%. Regarding `Cc1ccccc1C(=O)NC(NC(=S)Nc1sc2c(c1C(N)=O)CCCC2)C(Cl)(Cl)Cl` (stereo not shown) [CBK261047], the viability at 28.5 h, 10 µM was 97.9%. The figure for `O=C1CCN(Cc2nc(-c3cccc(C(F)(F)F)c3)no2)CCN1` [CBK306368] is 109%; for `CC(NS(=O)(=O)c1ccccc1Cl)C(=O)N1CCCC1` (stereo not shown) [CBK305994] it is 93.2%; for `Nc1cc2cccnc2c(-c2ccc3c(c2)CCO3)n1` [CBK081173] it is 98%. Take `CC(C)[C@@H](Cn1nc(-c2cccs2)ccc1=O)NC(=O)C1CC1` [CBK284297]: the viability at 28.5 h, 10 µM worked out at 87.4%. As to `Cc1ccc2sc(NC(=O)c3ccc(Cl)s3)nc2c1C` [CBK291144], the viability at 28.5 h, 10 µM came out at 103%.

Take `O=C(CN1CCN(c2ccc(C(F)(F)F)cn2)CC1)c1ccccc1` [CBK074699]: the viability at 28.5 h, 10 µM was 111%.

Take `O=C1c2ccccc2C(=O)N1CCOc1nccnc1-c1ccsc1` [CBK106760]: the viability at 28.5 h, 10 µM is 90.4%. Under `O=C(N[C@H]1C[C@H]2C(=O)Nc3ccccc3C(=O)N2C1)c1ccccc1` [CBK289354] stands 103%; under `O=C(c1ccccc1F)N1CCC(c2cc3ncccc3[nH]2)CC1` [CBK283391], 86.5%; under `Cc1ccc(S(=O)(=O)CC(=O)N2CCC3(CCN(C(=O)Cc4c[nH]c5ccccc45)C3)C2)cc1` (stereo not shown) [CBK131443], 84%. With `CN(CC(N)=O)c1nc(-c2cccnc2)nc2ccccc12` [CBK306346], the viability at 28.5 h, 10 µM is 87%. Turning to `O=C(N[C@@H](Cc1ccc(O)cc1)C(=O)O)OCc1ccccc1` [CBK287012], the viability at 28.5 h, 10 µM came out at 94.8%. With `CN1CCC(CNC(=O)C2(c3ccccc3F)CC2)(N(C)C)CC1` [CBK282604], the viability at 28.5 h, 10 µM turned out to be 91.6%. On to `O=C(O)c1cc(-c2ccccc2)oc1CSCCO` [CBK286559], for which the viability at 28.5 h, 10 µM worked out at 92.3%.

Consider `CC(C)(C)C(=O)N1CC[C@H]2NC(=O)N(c3ccc(F)cc3)C(=O)[C@H]21` [CBK289328], for which the viability at 28.5 h, 10 µM is 86.4%. Regarding `CCN(CC)CCN(C(=O)Nc1ccc(C(N)=O)cc1)C(C)c1ccc(OC)c(OC)c1` (stereo not shown) [CBK158962], the viability at 28.5 h, 10 µM was found to be 108%. `O=C(CN1CCN(CC(=O)NC2CC2)CC1)Nc1cc(Cl)ccc1Cl` [CBK306091]: the viability at 28.5 h, 10 µM amounted to 84.8%. With `Cc1cccc(NC(=O)[C@@H](NC(=O)c2ccccc2F)C(C)C)c1C` [CBK297509], the viability at 28.5 h, 10 µM came to 85.4%. Take `Nc1nonc1-n1nnc(C(=O)N/N=C/c2nc3ccccc3[nH]2)c1-c1ccccc1` [CBK262815]: the viability at 28.5 h, 10 µM amounted to 93.8%. On to `Cc1ccc(CNC(=O)c2ccc3c(c2)NC(=O)C(N2CCCC2)S3)cc1` (stereo not shown) [CBK071788], for which the viability at 28.5 h, 10 µM worked out at 84.6%. `COc1cc(CNc2nnn[nH]2)cc(Cl)c1OC` [CBK288087]: the viability at 28.5 h, 10 µM stood at 97.8%. For `O=C1COc2ccccc2C/C=C/CC2(CCN(C(=O)c3n[nH]c4ccccc34)CC2)CN1` [CBK292021], the viability at 28.5 h, 10 µM came out at 88.9%. For `CCOc1cc(OCC)cc(C(=O)N2CCC3(CC2)NC(=O)c2ccc(C)cc2O3)c1` [CBK166215], the viability at 28.5 h, 10 µM amounted to 117%. For `O=C(Nc1ccc(S(=O)(=O)Nc2nccc(/C=C/c3ccc(Cl)cc3)n2)cc1)c1ccc(Br)cc1` [CBK263500], the viability at 28.5 h, 10 µM is 103%.

In the case of `COc1ccc(CC(=O)NC(CCSC)c2nc3ccccc3[nH]2)cc1` (stereo not shown) [CBK306050], the viability at 28.5 h, 10 µM stood at 82.6%.

Take `c1coc(-c2nccnc2NCCCN2CCOCC2)c1` [CBK038086]: the viability at 28.5 h, 10 µM was 96.8%. Regarding `Nc1ccc(-c2ccc(OC(F)(F)F)cc2)c2ccccc12` [CBK084327], the viability at 28.5 h, 10 µM amounted to 84.6%. For the molecule `CCOC(=O)C1CCN(S(=O)(=O)c2c(C)noc2C)CC1` [CBK051112], the viability at 28.5 h, 10 µM was 96.9%. On to `COCCNC(=O)C1CCN(c2nc3c(-c4cccc(C)c4)csc3c(=O)[nH]2)CC1` [CBK215629], for which the viability at 28.5 h, 10 µM is 93.1%.
